Measurements published in publication PMC11721293 (JCI Insight, 2025).
Values joined by “and” are separate entries in the source; they are usually repeats but may differ in a detail not shown here. Equal entries are not always repeated.

Assays:
SARS-CoV-2-nLUC [1] = assay: microbe, parasite or virus in culture; assay type: cell-based; settings: GGTI vs DMSO; replicates
omicron BA4.6 variant = assay: Drug combination, omicron BA4.6 in VeroE6, qRT-PCR; assay type: cell-based, SARS-CoV-2; settings: replicates
[2] = test system: SARS-CoV-2-nLuc in cells overexpressing W106R mutant FTase; assay type: cell-based
[3] = test system: SARS-CoV-2-nLuc in cells overexpressing WT FTase; assay: microbe, parasite or virus in culture; assay type: cell-based; settings: for luciferase activity (relative): WT
SARS-CoV-2-nLUC [4] = assay type: cell-based

With `Cc1nc[nH]c1CN1CCN(C(=O)N[C@@H](CC(C)C)C(=O)O)[C@@H](Cc2ccccc2)C1=O` [GGTI2418] the “signal relative to DMSO (sheet S7A)” value (SARS-CoV-2-nLUC [1]) was 90.3685 and 93.0121 and 91.627 and 90.3081.
For `NC(=O)N1CCC(CC(=O)N2CCC([C@H]3c4ncc(Br)cc4CCc4cc(Cl)cc(Br)c43)CC2)CC1` [LNF, lonafarnib], the “S3E viral level relative to LNF 0/ NRTV 0” value (omicron BA4.6 variant; LNF 1/ NRTV 0) was 69.1766 and 49.5863 and 50.5202, the “S3D viral level relative to LNF 0/ RDV 0” value (omicron BA4.6 variant; LNF 1/ RDV 0) was 32.8373 and 32.7511 and 35.1123 and the “S3E viral level relative to LNF 0/ NRTV 0” value (omicron BA4.6 variant; LNF 10/ NRTV 0) was 2.995 and 4.305 and 4.101. For the same molecule, the “S3D viral level relative to LNF 0/ RDV 0” value (omicron BA4.6 variant; LNF 10/ RDV 0) was 2.77 and 3.103 and 2.149, the “fold less effective in cells expressing mutant FTase vs WT” value [2] was about 2 fold and the IC50 ([2]; read-out: Mut IC50) was 2200 nM. The IC50 ([3]; Severe acute respiratory syndrome coronavirus 2, Vero C1008, VeroE6 transfected with WT FNTB, 24 h) was 1100 nM, the “luciferase activity (relative)” value ([3]; Log[LNF} mM (printed) 0.09691) was 63.7112 and 63.9819 and 49.739 and 50.5313 and the “luciferase activity (relative)” value ([3]; Log[LNF} mM (printed) 0.39794) was 34.2371 and 34.2326 and 46.1621 and 47.4504. The “luciferase activity (relative)” value ([3]; Log[LNF} mM (printed) 0.69897) was 15.3696 and 15.2721 and 16.4684 and 16.5029, the “luciferase activity (relative)” value ([3]; Log[LNF} mM (printed) 1) was 6.188 and 5.457 and 5.008 and 4.944 and the “luciferase activity (relative)” value ([3]; Log[LNF} mM (printed) -0.20412) was 54.7411 and 54.7908 and 56.706 and 57.079. For the same molecule, the “luciferase activity (relative)” value ([3]; Log[LNF} mM (printed) -0.50515) was 62.6012 and 61.9491 and 68.0615 and 68.2295, the “luciferase activity (relative)” value ([3]; Log[LNF} mM (printed) -0.80618) was 99.8257 and 98.9 and 84.2901 and 84.2134 and the “luciferase activity (relative)” value ([3]; Log[LNF} mM (printed) -1.10721) was 97.017 and 96.4383 and 93.6225 and 92.4394.
`CC(C)(C)[C@H](NC(=O)C(F)(F)F)C(=O)N1C[C@H]2[C@@H]([C@H]1C(=O)N[C@H](C#N)C[C@@H]1CCNC1=O)C2(C)C` [NRTV, nirmatrelvir] was tested, and the “S3E viral level relative to LNF 0/ NRTV 0” value (omicron BA4.6 variant; LNF 0/ NRTV 0.5) was 47.9329 and 37.1942 and 53.3183 and the “S3E viral level relative to LNF 0/ NRTV 0” value (omicron BA4.6 variant; LNF 0/ NRTV 5) was 1.354 and 1.072 and 1.497.
For `CN(C)C(=O)COC(=O)Cc1ccc(OC(=O)c2ccc(NC(=N)N)cc2)cc1` [camostat], the “infection signal (sheet S4F)” value (SARS-CoV-2-nLUC [4]) was 74.3368 and 81.9164 and 86.4071 and 85.3028 and 90.7155 and 94.6132 and 81.833 and 79.6415.
